The results in this text go back to patent US20200223889A1, “Bicyclic Compounds Capable of Binding to Melanocortin 4 Receptor” (Novo Nordisk A/S, priority 2017, published 2020).

pEC50, pKi: −log10 of the molar value. Read-outs that look alike come from different tables or passages of the source. Positions of bridges follow the written chain, without caps; N, C: chain ends. Non-standard residues stand in square brackets, D forms with d. Residues, ends and D or L forms follow the SMILES beside them. Phe(4-CN) = N#Cc1ccc(C[C@H](N)C(=O)O)cc1; 1Nal = N[C@@H](Cc1cccc2ccccc12)C(=O)O; Cit = NC(=O)NCCC[C@H](N)C(=O)O; Pen = CC(C)(S)[C@H](N)C(=O)O; Thz = O=C(O)[C@@H]1CSCN1; Ac4c = NC1(C(=O)O)CCC1

The target in experiment [1] is T1, human MC4R (Homo sapiens, UniProt P32245).
T1 construct: expressed in transfected cells
The experiment in a line: Functional cAMP assay (CisBio HTRF) in BHK cells expressing human MC4R. The experiment is classed as cell-based. As to conditions: for MC1R/MC4R cAMP EC50 ratio: MC1R cAMP EC50 divided by MC4R cAMP EC50. Here is the method: In order to assess the potency of the compounds on human MC1R and human MC4R cAMP signalling was measured.
cAMP induction was measured by c-AMPdynamic2 assay, HTRF 62AM4PEC system from CisBio for the human MC1R and human MC4R according to the protocol provided by the vendor. BHK cells expressing the human MC1 or MC4 receptor were generated by stable transfection with expression vectors encoding the cDNA of either MC1R or MC4R.
In details; 25 μl compound—or standard solution were added in the respective wells. Compound was reconstituted in buffer (DMEM w/o phenol red, 10 mM
Hepes, lx Glutamine, 0.1% OV-albumin1, 1 mM IBMX) and serially diluted starting at 2 μM, 10-fold seven times. Dilutions were carried out in the same aforementioned buffer to the desired working concentration ranges (2× higher than the final concentration). 25 μl cell solution was then added and allowed to incubate for 30 min while lightly shaking, at 25° C. […] The provided components for the assay were reconstituted according to the CisBio assay protocol “3.1 supplied reagents and preparation procedure” in MilliQ purification system H2O and diluted 1:20 in lysis buffer. 25 μl cAMP-d2 and 25 μl Cryptate conjugate were added to all wells.
Plates were centrifuged at 1500 rpm for 30 sec and incubated for 1 h, lightly shaking, at 25° C. in a hotel stacker. The plates were read on Mithras LB 940 provided by Berthold Technologies The data were analysed by non-linear regression analysis of binding curves, using the Windows™ program GraphPad™ Prism (GraphPad Software, USA).
The latter is used when no full curve can be obtained in the concentration ranges indicated above.
A general note: Changes in cAMP serve as a functional read-out for many G protein-coupled receptors.

The target of experiment [2] is T1, human MC4R. The experiment in a line: 125NDP-α-MSH competitive binding to membranes of BHK cells expressing human MC4 receptor (filtration assay). Here is the method:
In Vitro ^125NDP-α-MSH Binding to Recombinant BHK Cells Expressing Human MC4 Receptor (Filtration Assay)
In order to assess the binding affinity of the selected compounds for the human MC4R competitive binding assays was performed with radiolabeled NDP-alpha MSH (^125NDP-α-MSH).
The assay was performed in 96-well filterplates (Unifilter) using BHK cells stably expressing the human MC4 receptor.
The BHK cell membranes were prepared from frozen or fresh cells that were homogenized in 20 mM HEPES pH 7.1, 5 mM MgCl2, 1 mg/ml bacitracin (buffer 1) and centrifuged at 15000 rpm at 4° C., 10 min in a Sorvall RC 5B plus, SS-34 rotor. The supernatant was discarded, and the pellets were re-suspended in buffer 1, homogenized and centrifuged two more times. The final pellets were re-suspended in buffer 1 and the protein concentration was measured and adjusted with buffer 1 to 5 mg/ml and the membrane preparation was kept at −80° C. until assay. The assay was run on a dilution of this cell membrane suspension without any further preparation. The suspension was diluted to give maximally 10% specific binding, i.e. to approx. 50-100 fold dilution, optimized after each membrane preparation. The assay was performed in a total volume of 200 μl: 50 μl of cell suspension, 50 μl of ^125NDP-α-MSH (apx. […] in final concentration), 50 μl of test compound and 50 μl binding buffer were mixed and incubated for 2 h at 25° C. (binding buffer: 25 mM HEPES, pH 7.0, 1 mM CaCl2), 1 mM MgSO4, 1 mM EGTA, 0.005% Tween™ 20 and 0.1% HSA or, alternatively, 0.1% ovalbumin (Sigma; catalogue No. A-5503)). Test compounds were dissolved in 100% DMSO and diluted in binding buffer in a dose range from 1 μM to 0.001 nM. Radiolabelled ligand and membranes were diluted in binding buffer. The incubation was stopped by dilution with 8×100 μl ice-cold 0.9% NaCl. The radioactivity retained on the filters was counted using a Packard Topcounter. The data were analysed by non-linear regression analysis of binding curves, using the Windows™ program GraphPad™ Prism (GraphPad Software, USA).

Setting [3] is: BHK cells expressing human MC4R, '>' = highest dose used with no response, read-out: MC4R cAMP EC50.
Where [4] appears, read: human MC4R, BHK cell membranes, 125NDP-α-MSH radioligand, read-out: MC4R binding Ki.

T1 sequence (P32245 whole entry): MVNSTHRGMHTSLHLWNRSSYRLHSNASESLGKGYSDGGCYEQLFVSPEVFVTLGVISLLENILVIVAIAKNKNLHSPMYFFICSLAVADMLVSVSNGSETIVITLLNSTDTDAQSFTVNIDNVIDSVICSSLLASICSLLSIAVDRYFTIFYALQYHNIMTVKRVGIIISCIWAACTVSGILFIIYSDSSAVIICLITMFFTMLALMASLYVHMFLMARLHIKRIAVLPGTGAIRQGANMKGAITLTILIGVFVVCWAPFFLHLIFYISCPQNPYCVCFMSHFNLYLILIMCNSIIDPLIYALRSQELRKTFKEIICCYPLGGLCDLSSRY

With `N=C(N)NCCC[C@@H]1NC(=O)[C@@H](Cc2ccccc2)NC(=O)[C@H](Cc2c[nH]cn2)NC(=O)[C@@H]2CCCN2C(=O)[C@@H]2CSSC[C@H](NC(=O)[C@H](Cc3c[nH]c4ccccc34)NC1=O)C(=O)N1CCC[C@H]1C(=O)N[C@@H](Cc1c[nH]cn1)C(=O)N[C@H](Cc1ccccc1)C(=O)N[C@@H](CCCNC(=N)N)C(=O)N[C@@H](Cc1c[nH]c3ccccc13)C(=O)N2` [Chem. 30, c[c[Cys-Pro-His-D-Phe-Arg-Trp-Cys]- Pro-His-D-Phe-Arg-Trp]] (cyclo(CPH[dF]RWCPH[dF]RW); disulfide 1-7), at human MC4R [1] (setting [3]), the pEC50 was 10.52. Moreover, the “MC1R/MC4R cAMP EC50 ratio” value on human MC4R [1] is 5. In addition, on human MC4R [2] (setting [4]), the pKi was 10.05.
Regarding `NCCCC[C@@H]1NC(=O)[C@H](CCCCN)NC(=O)[C@@H]2CSSC[C@H](NC(=O)[C@H](Cc3c[nH]c4ccccc34)NC(=O)[C@H](CCCCN)NC(=O)[C@H](CCCCN)NC1=O)C(=O)N1CCC[C@H]1C(=O)N[C@@H](Cc1c[nH]cn1)C(=O)N[C@H](Cc1ccccc1)C(=O)N[C@@H](Cc1c[nH]cn1)C(=O)N[C@@H](Cc1c[nH]c3ccccc13)C(=O)N2` [Chem. 75, c[c[Cys-Pro-His-D-Phe-His-Trp-Cys]- Lys-Lys-Lys-Lys-Trp]] (cyclo(CKKKKWCPH[dF]HW); disulfide 1-7), the pEC50 at human MC4R [1] (setting [3]) was 9.36. In addition, the “MC1R/MC4R cAMP EC50 ratio” value at human MC4R [1] came to 155. Besides, the pKi on human MC4R [2] (setting [4]) was 9.96.
As to `NCCCC[C@@H]1NC(=O)[C@H](CCCCN)NC(=O)[C@H](CCCCN)NC(=O)[C@@H]2CSSC[C@H](NC(=O)[C@H](Cc3c[nH]c4ccccc34)NC(=O)[C@H](CCCCN)NC1=O)C(=O)N[C@@H](CCCCN)C(=O)N[C@@H](Cc1c[nH]cn1)C(=O)N[C@H](Cc1ccccc1)C(=O)N[C@@H](Cc1c[nH]cn1)C(=O)N[C@@H](Cc1c[nH]c3ccccc13)C(=O)N2` [Chem. 77, c[c[Cys-Lys-His-D-Phe-His-Trp-Cys]- Lys-Lys-Lys-Lys-Trp]] (cyclo(CKH[dF]HWCKKKKW); disulfide 1-7), the “MC1R/MC4R cAMP EC50 ratio” value on human MC4R [1] came to 108. Further, at human MC4R [2] (setting [4]), the pKi was 9.14.
On to `C[C@@H]1NC(=O)[C@@H]2CSSC(C)(C)[C@H](NC(=O)[C@H](CCCNC(=N)N)NC(=O)[C@H](CCCCN)NC(=O)[C@H](CCCCN)NC(=O)[C@H](CCCCN)NC1=O)C(=O)N1CCC[C@H]1C(=O)N[C@@H](Cc1c[nH]cn1)C(=O)N[C@H](Cc1ccccc1)C(=O)N[C@@H](Cc1c[nH]cn1)C(=O)N[C@@H](Cc1c[nH]c3ccccc13)C(=O)N2` [Chem. 92, c[c[Pen-Pro-His-D-Phe-His-Trp-Cys]- Ala-Lys-Lys-Lys-Arg]] (cyclo(AKKKR[Pen]PH[dF]HWC); disulfide 6-12), for which the pEC50 on human MC4R [1] (setting [3]) is 9.89. In addition, the “MC1R/MC4R cAMP EC50 ratio” value at human MC4R [1] worked out at 362. For the same molecule, on human MC4R [2] (setting [4]), the pKi is 10.40.
The matching figures for `C[C@@H]1NC(=O)[C@@H]2CSSC[C@H](NC(=O)[C@H](Cc3c[nH]c4ccccc34)NC(=O)[C@H](Cc3c[nH]cn3)NC(=O)[C@@H](Cc3ccccc3)NC(=O)[C@H](Cc3c[nH]cn3)NC1=O)C(=O)N[C@@H](C)C(=O)N[C@@H](CCCCN)C(=O)N[C@@H](CCCCN)C(=O)N[C@@H](CCCCN)C(=O)N[C@@H](Cc1c[nH]c3ccccc13)C(=O)N2` [Chem. 60, c[c[Cys-Ala-His-D-Phe-His-Trp-Cys]- Ala-Lys-Lys-Lys-Trp]] (cyclo(AH[dF]HWCAKKKWC); disulfide 6-12): 9.77, 313 and 10.00.
The matching figures for `C[C@@H]1NC(=O)[C@@H]2CSSC[C@H](NC(=O)[C@H](Cc3cccc4ccccc34)NC(=O)[C@H](CCCNC(=N)N)NC(=O)[C@@H](Cc3ccccc3)NC(=O)[C@H](Cc3c[nH]cn3)NC1=O)C(=O)N[C@@H](C)C(=O)N[C@@H](CCCCN)C(=O)N[C@@H](CCCCN)C(=O)N[C@@H](CCCCN)C(=O)N[C@@H](Cc1c[nH]c3ccccc13)C(=O)N2` [Chem. 64, c[c[Cys-Ala-His-D-Phe-Arg-1-Nal- Cys]-Ala-Lys-Lys-Lys-Trp]] (cyclo([1Nal]CAKKKWCAH[dF]R); disulfide 2-8): 10.52, 141 and 10.05.
The matching figures for `C[C@@H]1NC(=O)[C@@H]2CSSC[C@H](NC(=O)[C@H](CCCNC(=N)N)NC(=O)[C@H](CCCCN)NC(=O)[C@H](CCCCN)NC(=O)[C@H](CCCCN)NC1=O)C(=O)N[C@@H](CCCCN)C(=O)N[C@@H](Cc1c[nH]cn1)C(=O)N[C@H](Cc1ccccc1)C(=O)N[C@@H](Cc1c[nH]cn1)C(=O)N[C@@H](Cc1c[nH]c3ccccc13)C(=O)N2` [Chem. 78, c[c[Cys-Lys-His-D-Phe-His-Trp-Cys]- Ala-Lys-Lys-Lys-Arg]] (cyclo(AKKKRCKH[dF]HWC); disulfide 6-12): 10.40, 95 and 10.70.
Turning to `N=C(N)NCCC[C@@H]1NC(=O)[C@@H](Cc2ccccc2)NC(=O)[C@H](Cc2c[nH]cn2)NC(=O)C2(CCC2)NC(=O)[C@@H]2CSSC[C@H](NC(=O)[C@H](Cc3c[nH]c4ccccc34)NC1=O)C(=O)NC1(CCC1)C(=O)N[C@@H](Cc1c[nH]cn1)C(=O)N[C@H](Cc1ccccc1)C(=O)N[C@@H](CCCNC(=N)N)C(=O)N[C@@H](Cc1c[nH]c3ccccc13)C(=O)N2` [Chem. 20, c[c[Cys-ACBC-His-D-Phe-Arg-Trp- Cys]-ACBC-His-D-Phe-Arg-Trp]] (cyclo([Ac4c]H[dF]RWC[Ac4c]H[dF]RWC); disulfide 6-12), on human MC4R [1], the negative logarithm of the EC50 (pEC50) was 10.40 and the “MC1R/MC4R cAMP EC50 ratio” value amounted to 124. This molecule also gave a pKi on human MC4R [2] of 9.82.
The like results for `C[C@@H]1NC(=O)[C@@H]2CSSC[C@H](NC(=O)[C@H](CCCNC(=N)N)NC(=O)[C@H](CCCCN)NC(=O)[C@H](CCCCN)NC(=O)[C@H](CCCCN)NC1=O)C(=O)N1CSC[C@H]1C(=O)N[C@@H](Cc1c[nH]cn1)C(=O)N[C@H](Cc1ccccc1)C(=O)N[C@@H](Cc1c[nH]cn1)C(=O)N[C@@H](Cc1c[nH]c3ccccc13)C(=O)N2` [Chem. 100, c[c[Cys-THAZ-His-D-Phe-His-Trp- Cys]-Ala-Lys-Lys-Lys-Arg]] (cyclo(AKKKRC[Thz]H[dF]HWC); disulfide 6-12) were, in that order, 10.70, 925 and 10.40.
As to `C[C@@H]1NC(=O)[C@@H]2CSSC[C@H](NC(=O)[C@H](CCCNC(=N)N)NC(=O)[C@H](CCCCN)NC(=O)[C@H](CCCCN)NC(=O)[C@H](CCCCN)NC1=O)C(=O)N1CCC[C@H]1C(=O)N[C@@H](Cc1c[nH]cn1)C(=O)N[C@H](Cc1ccccc1)C(=O)N[C@@H](CCCNC(N)=O)C(=O)N[C@@H](Cc1c[nH]c3ccccc13)C(=O)N2` [Chem. 72, c[c[Cys-Pro-His-D-Phe-Cit-Trp-Cys]- Ala-Lys-Lys-Lys-Arg]] (cyclo(AKKKRCPH[dF][Cit]WC); disulfide 6-12), the pEC50 on human MC4R [1] (setting [3]) was 10.52. In addition, the “MC1R/MC4R cAMP EC50 ratio” value at human MC4R [1] turned out to be 195. For the same molecule, the pKi at human MC4R [2] (setting [4]) is 10.52.
In the case of `C[C@@H]1NC(=O)[C@@H]2CSSC[C@H](NC(=O)[C@H](Cc3ccc(C#N)cc3)NC(=O)[C@H](CCCNC(=N)N)NC(=O)[C@@H](Cc3ccccc3)NC(=O)[C@H](Cc3c[nH]cn3)NC1=O)C(=O)N[C@@H](C)C(=O)N[C@@H](CCCCN)C(=O)N[C@@H](CCCCN)C(=O)N[C@@H](CCCCN)C(=O)N[C@@H](Cc1c[nH]c3ccccc13)C(=O)N2` [Chem. 65, c[c[Cys-Ala-His-D-Phe-Arg-4-CN- Phe-Cys]-Ala-Lys-Lys-Lys-Trp]] (cyclo(AH[dF]R[Phe(4-CN)]CAKKKWC); disulfide 6-12), the pEC50 on human MC4R [1] (setting [3]) was 9.38. In addition, on human MC4R [1], the “MC1R/MC4R cAMP EC50 ratio” value is given as 26. Also, the pKi at human MC4R [2] (setting [4]) is 9.33.

A word on the pEC50: it is −log10 of the EC50, conventionally taken in molar units. As a reminder, the pKi is the negative decadic logarithm of the Ki, by convention in mol/L.
